In one data set the test system is CNE2. Nature of the data set: MTT cytotoxicity assay, CNE2. The class given is cell-based. To be noted: mean ± SD. As for the experimental part: (§1) Prior to determining the combined inhibitory effects against NPC CDDP-resistance cells, the cytotoxicity effects of these 8 derivatives were evaluated against three NPC cell lines (CNE2, HONE1, and HK-1) and CDDP resistance cell line (CNE2/CDDP) by using MTT (3-(4,5-dimethyl-2-thiazolyl)-2,5-diphenyl-2-H-tetrazolium bromide) assays. […] Moreover, a liver normal cell LO2 was involved to evaluate the selectivity of these 8 compounds by using MTT assays.
(§2) Nasopharyngeal carcinoma cells (CNE2, HONE1, and CNE2/CDDP) were purchased from Shanghai Aulu Biological Technologh Co., Ltd. (Shanghai, China). HK-1 cell was purchased from Shanghai Shunran Biological Technologh Co., Ltd. CNE2, HONE1, and HK-1 were cultured in DMEM medium supplemented with 10% fetal bovine serum, 1% penicillin-streptomycin. CDDP-resistant NPC cell CNE2/CDDP was cultured in DMEM medium supplemented with CDDP to sustain its drug resistance. Cell viability was detected using the MTT assay. All the 8 derivatives were resolved with DMSO to make a storage solution at 1 M, and CDDP was resolved with phosphate buffer saline (PBS) to make a storage solution at 100 mM. The maximum concentrations of these 8 derivatives and CDDP used in MTT assays were set as 1 mM and 100 µM diluted with DMEM medium, respectively. Medium with 0.1% DMSO was set as control. To begin, an initial MTT assay was conducted to evaluate the cytotoxicity of 3a~3h with a dose range of 50, 100, 200, 400, and 800 µM. Then, a more precise dose range was set to calculate the IC50 of each compound (For 3a~3e: 50, 100, 200, 400, 600, and 800 µM; for 3f~3h: 12.5, 25, 50, 100, 200, and 400 µM). Then, 5000 cells were seeded in a 96-well plate for each well and treated with respective compounds at different concentrations for 72 h following additional treatment with MTT for 2~3 h. Then, MTT was removed and 150 µL DMSO was added into each well and the absorption values were measured at 490 nm using a SpectraMAX M5plate reader (Silicon Valley, CA, USA).
Background: Formazan colour is commonly taken as a measure of viable cells.

The next data set deals with HONE1. Nature of the data set: MTT cytotoxicity assay, HONE1. The class given is cell-based. To be noted: mean ± SD. As for the experimental part: as §1, §2
For a further data set, the system named is HK-1. Nature of the data set: MTT cytotoxicity assay, HK-1. The class given is cell-based. To be noted: mean ± SD. As for the experimental part:
as §1, §2

A further data set relates to CNE2/CDDP. Description: MTT cytotoxicity assay, CNE2/CDDP. The class given is cell-based. To be noted: cisplatin resistant cell line, mean ± SD. As for the experimental part:
as §1, §2

The next data set deals with LO2. Description: MTT cytotoxicity assay, LO2 normal liver cell. To be noted: mean ± SD. The class given is cell-based. As for the experimental part: as §1, §2
The test system of another data set is CNE2/CDDP cells. Nature of the data set: Apoptosis assay (Annexin V-FITC/PI, FACS). The class given is cell-based. To be noted: CDDP 4 µg/mL or 3f 40 µM alone, 24 h, three independent experiments, mean ± SD. As for the experimental part:
Subsequently, to further verify whether the synergistic effects of compound 3f with CDDP involved cell death, an apoptosis assay was conducted. CNE2/CDDP cells were co-treated with CDDP and compound 3f, or CDDP and 3f alone for 24 h. Then, cells were harvested for staining by using an apoptosis kit, following FACS detection (Figure 3a). Then, the data from three independent experiments were analyzed and the results were shown in the form of histogram (Figure 3b).
CNE2/CDDP cells (3 × 10^5) were seeded into a 6-well plate for each well. Twenty-four hours later, medium was removed and cells were treated with different compounds for […]. Then, cells were harvested, washed with cold PBS, and stained with Annexin V-FITC and PI for 15 min in dark. Finally, samples were analyzed by flow cytometer.
Figure 3 Compound 3f (40 µM) increased apoptosis rate of CDDP (4 µg/mL) in CNE2/CDDP cells. (a), representative apoptosis detection by FACS. (b), three independent experiments of apoptosis assays were analyzed and p-value was calculated. Data are represented as mean ± SD. Bar means SD value * p < 0.05, compared with CDDP; # p < 0.05, compared with 3f.

Data set [1] has as its system NPC cell lines (CNE2, HONE1, and HK-1) and CDDP resistance cell line (CNE2/CDDP). Nature of the data set: MTT cytotoxicity, summary over NPC cell lines and CDDP resistance cell line. Type of data set: cell-based. To be noted: range over CNE2, HONE1, HK-1 and CNE2/CDDP, read-out: IC50, anti-proliferative effects. As for the experimental part:
as §1
Nasopharyngeal carcinoma cells (CNE2, HONE1, and CNE2/CDDP) were purchased from Shanghai Aulu Biological Technologh Co., Ltd. (Shanghai, China). HK-1 cell was purchased from Shanghai Shunran Biological Technologh Co., Ltd. CNE2, HONE1, and HK-1 were cultured in DMEM medium supplemented with 10% fetal bovine serum, 1% penicillin-streptomycin. CDDP-resistant NPC cell CNE2/CDDP was cultured in DMEM medium supplemented with CDDP to sustain its drug resistance. Cell viability was detected using the MTT assay. All the 8 derivatives were resolved with DMSO to make a storage solution at 1 M, and CDDP was resolved with phosphate buffer saline (PBS) to make a storage solution at 100 mM. […] Then, MTT was removed and 150 µL DMSO was added into each well and the absorption values were measured at 490 nm using a SpectraMAX M5plate reader (Silicon Valley, CA, USA).

Data set [2] relates to leukemia, breast, and bladder cancer cells. To be noted: cited from earlier work.

A value given as a limit tells only on which side of the number the result lay.

`S=C1/C(=C/c2ccc(Br)s2)CC[C@@H]2[C@H]3CCCN4CCC[C@@H](CN12)[C@@H]34` [3h, 14-((5-bromothiophen-2-yl)methylene)thiomatrine]: the melting point (in general, the temperature of the solid-liquid transition) was 239.9 to 240.6 °C. Besides, in the data set on CNE2 (Homo sapiens, CNE-2, 72 h), the IC50 (in general, the concentration at which inhibition is half-maximal) stood at 76.2 ± 4.5 µM. Besides, in the data set with HONE1 (Homo sapiens, HONE1, 72 h), the IC50 was 89.7 ± 6.2 µM. The same molecule registered an IC50 in the data set with HK-1 (HK-1, 72 h) of 103 ± 7.8 µM. Further, the IC50 with CNE2/CDDP (Homo sapiens, CNE-2, 72 h) is 178 ± 15.8 µM. The molecule further gave an IC50 in the data set on LO2 (Homo sapiens, L02, 72 h) of 92 ± 8.6 µM.

As to `[NH2][Pt]([NH2])([Cl])[Cl]` [CDDP, Cisplatin, reference compound], the half-inhibitory concentration (IC50) stood at 3.77 ± 0.26 µM in the data set on CNE2 (72 h); 5.23 ± 0.37 µM in the data set with HONE1 (72 h); 6.73 ± 0.42 µM in the data set on HK-1 (72 h); 29.5 ± 3.12 µM in the data set on CNE2/CDDP (72 h); 6.33 ± 0.56 µM with LO2 (72 h). The “cell apoptosis, treatment alone” value in the data set with CNE2/CDDP cells was determined as 7.58 ± 0.82.

As to `Cc1ccsc1/C=C1\CC[C@@H]2[C@H]3CCCN4CCC[C@@H](CN2C1=S)[C@@H]34` [3e, 14-((3-methylthiophen-2-yl)methylene)thiomatrine], the melting point lay in the range of 193.6 to 195 °C. Besides, 148 ± 5.6 µM corresponded to half-maximal inhibition in the data set with CNE2 (Homo sapiens, CNE-2, 72 h) (IC50). This molecule registered an IC50 in the data set with HONE1 (Homo sapiens, HONE1, 72 h) of 185 ± 12.4 µM. For the same molecule, the IC50 in the data set with HK-1 (HK-1, 72 h) amounted to 180 ± 7.3 µM. This molecule also registered an IC50 in the data set with CNE2/CDDP (Homo sapiens, CNE-2, 72 h) of 452 ± 26.8 µM. In addition, the IC50 with LO2 (Homo sapiens, L02, 72 h) was 243 ± 12.7 µM.

`S=C1/C(=C/c2cc(Br)cs2)CC[C@@H]2[C@H]3CCCN4CCC[C@@H](CN12)[C@@H]34` [3g, 14-((4-bromothiophen-2-yl)methylene)thiomatrine] came in with a melting point of 245.7 to 246.3 °C. In addition, the IC50 in the data set with CNE2 (Homo sapiens, CNE-2, 72 h) turned out to be 58.3 ± 2.9 µM. Half-maximal inhibition in the data set on HONE1 (Homo sapiens, HONE1, 72 h) (IC50) required 71.5 ± 4.2 µM. The molecule further gave an IC50 in the data set on HK-1 (HK-1, 72 h) of 90.7 ± 6.6 µM. This molecule returned an IC50 with CNE2/CDDP (Homo sapiens, CNE-2, 72 h) of 206 ± 11.7 µM. Also, in the data set on LO2 (Homo sapiens, L02, 72 h), the IC50 turned out to be 68 ± 5.1 µM.

The molecule `S=C1/C(=C/c2ccsc2)CC[C@@H]2[C@H]3CCCN4CCC[C@@H](CN12)[C@@H]34` [3c, 14-(thiophen-3-ylmethylene)thiomatrine] yielded a melting point of 166.8 to 167.5 °C. The molecule further registered an IC50 in the data set with CNE2 (Homo sapiens, CNE-2, 72 h) of 144 ± 10.3 µM. Also, in the data set with HK-1 (HK-1, 72 h), the midpoint of inhibition, the IC50, lay at 191 ± 11.3 µM. This molecule came in with an IC50 with CNE2/CDDP (Homo sapiens, CNE-2, 72 h) of 676 ± 23.8 µM. This molecule had a 50% inhibitory concentration (IC50) with LO2 (Homo sapiens, L02, 72 h) of 285 ± 20.7 µM.

For the molecule `Cc1ccc(/C=C2\CC[C@@H]3[C@H]4CCCN5CCC[C@@H](CN3C2=S)[C@@H]45)s1` [3d, 14-((5-methylthiophen-2-yl)methylene)thiomatrine], the melting point was in the range of 186.2 to 187.4 °C. In the data set on CNE2 (Homo sapiens, CNE-2, 72 h), this molecule yielded an IC50 of 92.4 ± 6.5 µM. For the same molecule, the IC50 in the data set on HONE1 (Homo sapiens, HONE1, 72 h) came to 121 ± 7.7 µM. Further, the IC50 in the data set with HK-1 (HK-1, 72 h) is 138 ± 9.4 µM. For the same molecule, the 50% inhibitory concentration (IC50) in the data set with CNE2/CDDP (Homo sapiens, CNE-2, 72 h) came to 294 ± 20.1 µM. This molecule also returned an IC50 in the data set on LO2 (Homo sapiens, L02, 72 h) of 138 ± 9.6 µM.

On to `S=C1/C(=C/c2csc3ccccc23)CC[C@@H]2[C@H]3CCCN4CCC[C@@H](CN12)[C@@H]34` [3a], for which the IC50 in the data set on CNE2 (Homo sapiens, CNE-2, 72 h) amounted to 113 ± 7.2 µM; in the data set with HONE1 (Homo sapiens, HONE1, 72 h) it was 152 ± 8.4 µM; with HK-1 (HK-1, 72 h), 179 ± 12.1 µM; in the data set with CNE2/CDDP (Homo sapiens, CNE-2, 72 h) it was 375 ± 18.1 µM; in the data set on LO2 (Homo sapiens, L02, 72 h), 212 ± 15.3 µM.

On to `S=C1/C(=C/c2cccs2)CC[C@@H]2[C@H]3CCCN4CCC[C@@H](CN12)[C@@H]34` [3b], for which the IC50 in the data set on CNE2 (Homo sapiens, CNE-2, 72 h) is 158 ± 11.3 µM; with HONE1 (Homo sapiens, HONE1, 72 h), 125 ± 6.3 µM; in the data set with HK-1 (HK-1, 72 h), 208 ± 9.4 µM; in the data set with CNE2/CDDP (Homo sapiens, CNE-2, 72 h), 583 ± 15.3 µM; with LO2 (Homo sapiens, L02, 72 h), 156 ± 11.7 µM.

For `O=C1CCC[C@@H]2[C@H]3CCCN4CCC[C@@H](CN12)[C@@H]34` [Matrine], the IC50 in the data set on CNE2 (Homo sapiens, CNE-2, 72 h) is > 1000 µM; in the data set with HONE1 (Homo sapiens, HONE1, 72 h), > 1000 µM; with HK-1 (HK-1, 72 h), > 1000 µM; in the data set on CNE2/CDDP (Homo sapiens, CNE-2, 72 h), > 1000 µM; in the data set with LO2 (Homo sapiens, L02, 72 h) it was > 1000 µM; in [1], > 1000 µM. The “dosage reversing drug resistance in vitro” value in data set [2] was “more than 1 mM”.

(Values after article PMC7830115, “Design, Synthesis, Molecular Docking, and Tumor Resistance Reversal Activity Evaluation of Matrine Derivative with Thiophene Structure” (Molecules, 2021).)
